{
  "source": "patent US6399782B1",
  "about": "“Benzimidazole inhibitors of fructose 1,6-bisphosphatase” (Metabasis Therapeutics, Inc., priority 1997, dated 2002)",
  "key": {"[1]": {"biological_target": "T1, mouse liver FBPase (Mus musculus, UniProt Q9QXD6)", "T1 construct": "This partially purified fraction was used for enzyme assays; from tissue; host or cells: mouse liver, 45-75% ammonium sulfate fraction", "T1 sequence (Q9QXD6 2-338 limits assumed)": "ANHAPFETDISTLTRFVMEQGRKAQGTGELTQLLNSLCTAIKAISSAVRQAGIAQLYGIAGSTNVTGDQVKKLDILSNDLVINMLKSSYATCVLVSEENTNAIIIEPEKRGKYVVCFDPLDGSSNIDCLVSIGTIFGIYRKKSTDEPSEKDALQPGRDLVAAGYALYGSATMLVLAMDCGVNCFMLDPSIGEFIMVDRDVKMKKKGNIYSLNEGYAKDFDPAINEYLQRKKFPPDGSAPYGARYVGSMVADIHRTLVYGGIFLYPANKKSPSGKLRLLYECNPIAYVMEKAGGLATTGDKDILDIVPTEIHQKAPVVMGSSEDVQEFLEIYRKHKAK", "assay": "Inhibition of mouse liver FBPase", "assay_type": "biochemical", "conditions": "partially purified mouse liver fraction", "method": "Enzymatic activity was measured spectrophotometrically in reactions that coupled the formation of product (fructose 6-phosphate) to the reduction of dimethylthiazoldiphenyltetrazolium bromide (MTT) via NADP and phenazine methosulfate (PMS), using phosphoglucose isomerase and glucose 6-phosphate dehydrogenase as the coupling enzymes. Reaction mixtures (200 μl) were made up in 96-well microtitre plates, and consisted of 50 mM Tris-HCl, pH 7.4, 100 mM KCl, 5 mM EGTA, 2 mM MgCl2, 0.2 mM NADP, 1 mg/ml BSA, 1 mM MTT, 0.6 mM PMS, 1 unit/mL phosphoglucose isomerase, 2 units/mL glucose 6-phosphate dehydrogenase, and 0.150 mM substrate (fructose 1,6-bisphosphate). Inhibitor concentrations were varied from 0.01 μM to 10 μM.\nMouse liver FBPase was obtained by homogenizing freshly isolated mouse liver in 100 mM Tris-HCl buffer, pH 7.4, containing 1 mM EGTA, and 10% glycerol. […] This fraction was redissolved in the homogenization buffer and desalted on a PD-10 gel filtration column (Biorad) eluted with same. This partially purified fraction was used for enzyme assays. Both rat liver and mouse liver FBPase were assayed as described for human liver FBPase."}, "[2]": {"system": "18-hour fasted Sprague Dawley rats", "assay": "Glucose lowering following oral administration", "assay_type": "in vivo, rat", "method": "The compound was prepared in deionized water, adjusted to neutrality with sodium hydroxide, and brought into solution by sonication prior to administration. Blood glucose was measured immediately prior to dosing, and at 1 hour intervals thereafter. Blood samples were obtained from the tail vein, and measurements made by means of a Hemocue glucose analyzer (Hemocue Inc, Mission Viejo, Calif.) used according to the manufacturer's instructions. […] The average glucose lowering in the four responding animals was 62±8.6% relative to saline-treated controls at the 1 hour time point."}, "[3]": {"system": "rat hepatocytes", "assay": "Glucose production inhibition and fructose 1,6-bisphosphate accumulation in rat hepatocytes", "assay_type": "cell-based", "method": "Hepatocytes were prepared from overnight fasted Sprague-Dawley rats (250-300 g) according to the procedure of Berry and Friend (Berry, M. N., Friend, D. S., 1969, J. Cell. Biol. 43, 506-520) as modified by Groen (Groen, A. K., Sips, H. J., Vervoorn, R. C., Tager, J. M., 1982, Eur. J. Biochem. 122, 87-93). Hepatocytes (75 mg wet weight/mL) were incubated in 1 ml Krebs-bicarbonate buffer containing 10 mM Lactate, 1 mM pyruvate, 1 mg/mL BSA, and test compound concentrations from 1 to 500 μM. Incubations were carried out in a 95% oxygen, 5% carbon dioxide atmosphere in closed, 50-mL Falcon tubes submerged in a rapidly shaking water bath (37° C.). After 1 hour, an aliquot (0.25 mL) was removed, transferred to an Eppendorf tube and centrifuged. 50 μL of supernatant was then assayed for glucose content using a Sigma Glucose Oxidase kit as per the manufacturer's instructions.\nIsolated rat hepatocytes were prepared as described in Example D and incubated under the identical conditions described. […] After thorough mixing and centrifugation, the supernatant was analyzed for glucose content as described in Example D, and also for fructose 1,6-bisphosphate. Fructose 1,6-bisphosphate was assayed spectrophotometrically by coupling its enzymatic conversion to glycerol 3-phosphate to the oxidation of NADH, which was monitored at 340 nm. […]"}, "[4]": {"biological_target": "T2, hlFBPase (Homo sapiens, UniProt P09467)", "T2 construct": "made in house; host or cells: E. coli BL21", "T2 sequence (P09467 2-338 limits assumed)": "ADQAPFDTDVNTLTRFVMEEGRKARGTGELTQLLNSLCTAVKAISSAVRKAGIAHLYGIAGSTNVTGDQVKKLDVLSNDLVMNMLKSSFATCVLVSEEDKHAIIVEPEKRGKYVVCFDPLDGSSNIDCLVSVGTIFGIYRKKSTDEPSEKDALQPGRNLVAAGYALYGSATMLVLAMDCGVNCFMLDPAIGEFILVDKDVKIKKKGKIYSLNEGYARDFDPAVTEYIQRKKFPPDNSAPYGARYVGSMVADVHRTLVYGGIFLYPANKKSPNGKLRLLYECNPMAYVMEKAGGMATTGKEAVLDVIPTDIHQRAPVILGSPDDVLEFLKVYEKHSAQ", "assay": "AMP site binding (displacement of radiolabeled AMP)", "method": "To determine whether compounds bind to the allosteric AMP binding site of hlFBPase, the enzyme was incubated with radiolabeled AMP in the presence of a range of test compound concentrations. The reaction mixtures consisted of […] ^3H-AMP (54 mCi/mmol) and […] test compound in 25 mM Tris-HCl, pH 7.4, 100 mM KCl and 1 mM MgCl2. 1.45 mg of homogeneous FBPase (±1 nmole) was added last. After a 1 minute incubation, AMP bound to FBPase was separated from unbound AMP by means of a centrifugal ultrafiltration unit (“Ultrafree-MC”, Millipore) used according to the instructions of the manufacturer. The radioactivity in aliquots (100 μL) of the upper compartment of the unit (the retentate, which contrains enzyme and label) and the lower compartment (the filtrate, which contains unbound label) were quantified using a Beckman liquid scintillation counter. The amount of AMP bound to the enzyme was estimated by comparing the counts in the filtrate (the unbound label) to the total counts in the retentate."}},
  "data": [
    {"molecule": "Nc1c(F)ccc2c1nc(-c1ccc(P(=O)(O)O)o1)n2CC1CC1", "note": "[Compound 12.61, 4-Amino-5-fluoro-1-cyclopropylmethyl-2-(2-phosphono-5-furanyl)benzimidazole]", "values": [
      {"measurement": "IC50", "setting": "[1]", "value": "> 20", "unit": "µM"}
    ]},
    {"molecule": "CCc1cc(F)c(N)c2nc(-c3ccc(P(=O)(O)O)o3)n(CC(C)C)c12", "note": "[Compound 12.64]", "values": [
      {"measurement": "blood glucose effect, oral 30 mg/kg", "setting": "[2]; oral gavage 30 mg/kg, 18-hour fasted rats", "value": "without effect"},
      {"measurement": "blood glucose effect, oral 100 mg/kg", "setting": "[2]; oral gavage 100 mg/kg, 18-hour fasted rats", "value": "without effect"},
      {"measurement": "average glucose lowering in the four responding animals", "setting": "[2]; oral gavage 250 mg/kg, relative to saline-treated controls, 1 hour time point", "value": "62±8.6", "unit": "%"},
      {"measurement": "animals with profound hypoglycemia", "setting": "[2]; oral gavage 250 mg/kg, within 1 hour of administration", "value": "4 out of 5"},
      {"measurement": "IC50", "setting": "[3]; Hepatocyte, Example F, FIG. 5, read-out: IC50 glucose production from lactate/pyruvate", "value": "~3", "unit": "µM"},
      {"measurement": "accumulation of fructose 1,6-bisphosphate", "setting": "[3]; result in words", "value": "dose-dependent accumulation of fructose 1,6 bisphosphate"}
    ]},
    {"molecule": "CCn1c(-c2ccc(P(=O)(O)O)o2)nc2c(N)cccc21", "note": "[Compound 12.1, 4-Amino-1-ethyl-2-[2-(5-phosphono)furanyl]benzimidazole]", "values": [
      {"measurement": "EC50", "setting": "[4]; displacement of 3H-AMP from hlFBPase, read-out: ED50 for AMP displacement", "value": 50, "unit": "µM"},
      {"measurement": "displacement of AMP from human liver FBPase (FIG. 3)", "setting": "[4]; result in words", "value": "displaced AMP from human liver FBPase in a dose dependent manner"}
    ]}
  ]
}
